Experimental findings from the METLIN SMRT retention time set (Domingo-Almenara et al. 2019) are described below.

Each structure is given as a SMILES string.

This series is described as follows: gradient 5% acetonitrile 3 min, to 50% in 2 min, to 85% in 15 min, held 3 min, 100 µL/min. The conditions noted are these: column: Zorbax Extend-C18 2.1 x 50 mm; eluents: water / acetonitrile, 0.1% formic acid. Summed up:
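A Zorbax Extend-C18 column (2.1 × 50 mm, 1.8 μm) run at 100 μL/min with water and acetonitrile, both containing 0.1% formic acid, separated mixtures of ~100 pure standards. The HPLC was coupled to a quadrupole time-of-flight mass spectrometer operated in positive and negative ionization mode, with dead and dwell volumes of 40 μL and 900 μL. Each retention time was taken from a computationally picked adduct peak that was then manually inspected.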
`COCc1nnc(C(=O)Nc2cccc(C(=O)NCCc3c[nH]c4ccc(OC)cc34)c2)s1` registered an RP-LC retention time of 799 s.
Then `CCc1nc(-c2csc(S(=O)(=O)N3CCCC(C(=O)NCc4ccc(F)cc4)C3)c2)no1` (centres undefined), with 976 s.
Then `Cc1ccccc1NC(=O)CSc1ccc(N2CCCC(C(=O)NC3CC3)C2)nn1` (centres undefined), with 637 s; and `Cc1ccc(-c2cn3c(CC(=O)NCC(C)c4ccccc4)csc3n2)cc1C` (centres undefined), with 930 s.
Consider `CC1CCCCC1Nc1nc(-c2ccc([N+](=O)[O-])cc2)nc2ccccc12` (centres undefined), for which the RP-LC retention time was 950 s.
The compound `O=C(c1ccc(Cl)cc1Cl)N1CCN(c2cc(-c3ccccc3)[nH]n2)CC1` displayed an RP-LC retention time of 936 s.
In turn, `COc1cc(/C=C(\OC(C)=O)c2ccc3c(c2)OCO3)cc(OC)c1OC` displayed an RP-LC retention time of 924 s.
`COc1ccc(OC)c2c(C)cc(N3CCN(S(=O)(=O)c4ccc(C)cc4)CC3)nc12`: the RP-LC retention time is 798 s.
The value for `Cc1ccc(NC(=O)N(C)CCc2noc(COc3ccccc3)n2)cc1` was 892 s.
The compound `Cc1ccc(NC(=O)CSc2ccc(N3CCCC(C(=O)NC4CC4)C3)nn2)cc1Cl` (centres undefined) displayed an RP-LC retention time of 698 s.
Take `COc1cccc(-n2c(N3CCCC(C(=O)NCc4ccccc4)C3)nc3ccsc3c2=O)c1` (centres undefined): the RP-LC retention time was 859 s.
With `c1ccc(-c2nc(CSc3ccc(-n4cccn4)nn3)cs2)cc1`, the RP-LC retention time worked out at 1020 s.
Compound `Cc1ccc(S(=O)(=O)N2CCC3(CC2)NCCN=C3NCc2cccc(F)c2)cc1` showed an RP-LC retention time of 718 s.
As for `CC1Cc2ccccc2N1C(=O)c1ccc(Cl)cc1` (centres undefined), the RP-LC retention time turned out to be 972 s.
`O=C(c1ccc2c(c1)OCO2)N1CCCn2nc(-c3ccncc3)cc2C1` yielded an RP-LC retention time of 584 s.
The compound `CCc1cc(-c2csc(S(=O)(=O)NCCc3ccc(Cl)cc3)c2)on1` had an RP-LC retention time of 1050 s.
Then `Cc1nnc(C2CCCCCN2C(=O)CCc2c(C)nn(C)c2C)o1` (centres undefined), with 608 s.
Regarding `COc1ccc(C(=O)NC2CCN(c3cc(-c4ccc(Cl)cc4)[nH]n3)C2)cn1` (centres undefined), the RP-LC retention time is 732 s.
The value for `CCc1noc(-c2nc(-c3ccc(OC)c(F)c3)no2)n1` was 926 s; that for `C/C=C1/[C@H]2C=C(C)C[C@]1(N)c1ccc(=O)[nH]c1C2` was 589 s; that for `COc1cccc(Nc2n[nH]nc2C(=O)Nc2ccccc2Br)c1` was 1060 s.
As to `CS(=O)(=O)N1CCC(F)(c2nc(-c3ccccc3)no2)CC1`, the RP-LC retention time is 913 s.
Then `Cc1cccc(NC(=O)N2CCc3c(c(-c4nnc(-c5ccccc5Cl)o4)nn3C)C2)c1`, with 902 s.
As to `COc1ccc(N2CC(c3nc(-c4ccc(Cl)cc4)no3)CC2=O)cc1` (centres undefined), the RP-LC retention time stood at 998 s.
The value for `CCC(C(=O)N(C)CCc1noc(-c2ccc(C(=O)N3CCCC3)cc2)n1)c1ccccc1` (centres undefined) was 872 s; that for `Fc1ccc(Cc2nc(-c3cccc(-c4ccn[nH]4)c3)no2)cc1` was 925 s; that for `CC(C(=O)NCCc1ccco1)n1c(=O)c(C(F)(F)F)nc2ccccc21` (centres undefined) was 698 s.
The value for `CN(C)S(=O)(=O)c1ccc(C(=O)Nc2nc(-c3ccc4c(c3)OCO4)cs2)cc1` was 910 s.
For the compound `O=C(Cc1ccccc1Cl)NCC1CCN(C(=O)c2ccccc2F)CC1`, the RP-LC retention time amounted to 722 s.
Take `NNC(=O)c1nnsc1-c1csnn1`: the RP-LC retention time came to 657 s.
Then `Cc1nc(Nc2ccc(F)cn2)sc1C(=O)N1CCC2(CC1)OCCO2`, with 686 s; and `O=C(Nc1ccc(OCC(=O)N2CCN(c3ccccc3F)CC2)nc1)C1CC1`, with 648 s.
Then `CCNC(=O)C[C@@H]1N=C(c2ccc(Cl)cc2)c2cc(OC)ccc2-n2c(C)nnc21`, with 797 s; and `Cc1csc(C(=O)N2CC3CC2C(=O)O3)c1` (centres undefined), with 624 s; and `O=C(Nc1ccccc1)C1CCN(C(=O)c2ncn3c2COC(c2ccc(F)cc2)C3)CC1` (centres undefined), with 791 s.
The compound `CCCCNC(=O)CN1c2ccc(F)cc2-c2ccccc2S1(=O)=O` gave an RP-LC retention time of 884 s.
Compound `O=C(c1[nH]nc2c1CCc1ccccc1-2)N1CCC(c2noc(-c3ccccn3)n2)C1` (centres undefined) yielded an RP-LC retention time of 776 s.
In the case of `CCC1CCCCN1C(=O)c1ccc(-c2nnc3ccc(NC(=O)C4CCC4)cn23)cc1` (centres undefined), the RP-LC retention time is 870 s.
The value for `O=C(C1CCN(c2nc3ccc(-c4ccc(F)cc4)nc3s2)CC1)N1CCCC1` was 944 s.
The value for `Cc1ccc(-c2nccn3cc(C(=O)NCc4ccncc4)nc23)cc1` was 633 s; that for `CS(=O)(=O)c1ccc(NC(=O)CSc2ccc(N3CCCC(C(=O)NC4CC4)C3)nn2)cc1` (centres undefined) was 608 s.
The compound `CSc1cccc(NC(=O)NCC(c2cccnc2)c2c[nH]c3ccccc23)c1` (centres undefined) registered an RP-LC retention time of 677 s.
`CC(C)(C)NC(=O)c1ccc2nc(-c3ccccc3)cn2c1` yielded an RP-LC retention time of 783 s.
The value for `COC(=O)CNC(=O)N1c2ccccc2CC1c1nc(C(C)C)no1` (centres undefined) was 834 s; that for `O=C(NCc1ccc(F)cc1Cl)c1cn(-c2ccc(NC(=O)C3CC3)cn2)cn1` was 814 s; that for `CCCNC(=O)N1CCCN(S(C)(=O)=O)CC1` was 582 s.
The value for `CCOC(=O)N1CCN(S(=O)(=O)c2cc(N3C(=O)CCS3(=O)=O)ccc2C)CC1` was 729 s.
The value for `Cc1cc(SCC(=O)Nc2ccc(Cl)cc2C(F)(F)F)nc(-c2cccnc2)n1` was 785 s; that for `Cn1cc(S(=O)(=O)Nc2ccc(F)cc2Cl)c2cccnc21` was 814 s.
The compound `COC(=O)c1ccc(NC(=O)Cn2cccc(-c3nc(-c4ccc(Cl)cc4)no3)c2=O)cc1` yielded an RP-LC retention time of 934 s.
Turning to `O=C(NC1CC1)c1nnn2c1COC(c1ccc(Cl)cc1)C2` (centres undefined), the RP-LC retention time was 859 s.
`CCOC(=O)c1ccc(NC(=O)COc2cc(C)nc(N3CCCC3)n2)cc1` registered an RP-LC retention time of 591 s.
Then `FC(F)(F)c1ccc(/C=C/c2nc(COc3ccc(CCCCn4ccnn4)cc3)co2)cc1`, with 1170 s; and `O=C(Cc1nnc(-c2ccc3ncccc3c2)o1)NCCc1ccccc1`, with 702 s.
In the case of `CCOc1ccc(-c2csc(NC(=O)CCCc3nc(-c4ccccc4Cl)no3)n2)cc1`, the RP-LC retention time was 1160 s.
`COc1ccc(-c2nnc(SCC(=O)Nc3ccc(S(N)(=O)=O)cc3)o2)cc1` gave an RP-LC retention time of 736 s.
Then `COc1cccc(NC(=O)Cn2c(=O)c3cc(C4CC4)nn3c3ncccc32)c1`, with 763 s; and `COc1ccc(NC(=O)Cn2nc(N3CCC(C)CC3)c3ccccc3c2=O)c(OC)c1`, with 1130 s; and `COc1cc(C2Oc3ccc(C4Oc5cc(O)cc(O)c5C(=O)C4O)cc3OC2CO)ccc1O` (centres undefined), with 685 s.
Then `COc1ccc(NC(=O)C2=Cc3ccccc3OC=C2)c(OC)c1`, with 1030 s.
Then `Cc1ccc2c(c1)N(Cc1cccc(F)c1)N=C(C(=O)N1CCCC1)S2(=O)=O`, with 876 s; and `CCC(C)NC(=O)NCCC1CCN(S(=O)(=O)c2ccc(F)cc2)CC1` (centres undefined), with 814 s.
Consider `Brc1ccc(OCc2nc3c4ccccc4ncn3n2)cc1`, for which the RP-LC retention time stood at 981 s.
In turn, `O=C1CN(S(=O)(=O)c2cccc3cccnc23)C2(CCCC2)CN1` yielded an RP-LC retention time of 685 s.
The value for `COc1cccc(NC(=O)CN2C(=O)c3ccccc3Sc3ncccc32)c1` was 776 s.
The value for `OCC1CN(c2ncccn2)CC12CCN(Cc1c[nH]c3ccccc13)CC2` (centres undefined) was 579 s.
Then `CCc1cc(=O)n(CC(=O)Nc2ccc(C(F)(F)F)cc2)c(N2CCOCC2)n1`, with 849 s; and `CC1(C(=O)NCc2ccccc2)CCCN(C(=O)NC2CCCCC2)C1` (centres undefined), with 857 s.
`Cc1cc(Cl)ccc1NS(=O)(=O)c1ccc2onc(C(=O)N3CCCC3)c2c1` came in with an RP-LC retention time of 1030 s.
In turn, `C=CCN1C(=O)C(C)(C)COc2ccc(NC(=O)Oc3ccccc3)cc21` showed an RP-LC retention time of 960 s.
The value for `CC1(C)CC(=O)c2cn(-c3ccccc3)c(=O)c(C(=O)Nc3cccc(C#N)c3)c2C1` was 1030 s.
For `CN(C1CCc2nn(CC3CC3)c(=O)n2CC1)S(=O)(=O)c1ccc(C(F)(F)F)cc1` (centres undefined), the RP-LC retention time was found to be 876 s.
The value for `Fc1ccc(Cc2nc(-c3ccc4nncn4c3)no2)cc1` was 770 s; that for `CCOc1ccc(CNC(=O)CCc2c(-c3ccc(Br)cc3)nc3ccccn23)cc1` was 717 s; that for `Cc1ccc2[nH]cc(CCN3CC(C(=O)Nc4ccc(F)cc4F)CC3=O)c2c1` (centres undefined) was 835 s.
The value for `CN1C(=O)CC[C@]2(CNC(=O)COc3cccc(Cl)c3)CCC[C@@H]12` was 727 s; that for `O=S(=O)(c1ccccc1Br)N1CCc2nc(-c3ccccc3)ncc2C1` was 1090 s; that for `Cc1ccc(Cn2cccc2-c2nc(-c3ccc(F)cc3)no2)cc1` was 1460 s.
Then `CCc1ccc(-c2cn3cc(C(=O)NCCN4CCN(C)CC4)ccc3n2)cc1`, with 573 s.
